Data as given in US6472418B1, “Non-peptide NK1 receptors antagonists” (Warner-Lambert Company, priority 1998, dated 2002).

The compounds below were run against T1, Human NK1 Receptor (Homo sapiens, UniProt P25103) (assay: In Vitro Human NK1 Receptor Binding Assay ([125I]Bolton-Hunter substance P displacement, IM9 cells)). Settings: Human lymphoma IM9 cells, [125I]Bolton-Hunter substance P (0.05-0.1 nM), 50 min at 21° C.; Table 1; read-out: NK1 binding IC50.
T1 construct: endogenous in cells; host or cells: Human lymphoma IM9 cells (whole cells)
Summary of the method: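 Radioligand displacement on whole IM9 human lymphoma cells (2.5×10^6 cells/mL) using [125I]Bolton-Hunter substance P (0.05-0.1 nM), 50 min at 21° C in Tris pH 7.4/MnCl2 buffer with protease inhibitors. Non-specific binding defined by […] [Sar9, Met(O2)11] substance P. Filtration, gamma counting, iterative curve fitting.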

T1 sequence (P25103 whole entry): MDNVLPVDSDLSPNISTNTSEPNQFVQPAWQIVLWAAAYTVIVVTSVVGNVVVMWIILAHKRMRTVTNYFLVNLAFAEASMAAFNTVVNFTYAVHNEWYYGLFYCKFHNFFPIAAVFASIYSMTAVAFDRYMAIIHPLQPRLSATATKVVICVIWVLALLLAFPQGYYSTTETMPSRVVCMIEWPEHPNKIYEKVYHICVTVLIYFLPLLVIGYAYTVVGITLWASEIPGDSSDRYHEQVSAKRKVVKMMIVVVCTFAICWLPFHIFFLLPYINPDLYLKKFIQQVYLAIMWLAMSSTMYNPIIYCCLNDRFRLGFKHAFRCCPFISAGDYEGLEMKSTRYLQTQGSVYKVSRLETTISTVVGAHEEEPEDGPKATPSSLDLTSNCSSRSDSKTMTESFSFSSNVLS

Which IC50 does the source give for `C[C@H](NC(=O)[C@@H](Cc1c[nH]c2ccccc12)NCc1cccc(OC(F)(F)F)c1)c1ccccc1` (relative stereo) [Example 16, 3-(1H-Indol-3-yl)-N-(1-phenyl-ethyl)-2-(3-trifluoromethoxy-benzylamino)-propionamide, [R-(R*,S*)]] here?
Its IC50 is 9.1 nM.

Same assay, conditions: Human lymphoma IM9 cells, [125I]Bolton-Hunter substance P; Table 3, array-synthesis products; read-out: IC50 (nM) hNK1

Which IC50 does the source give for `O=C(NCc1ccc(F)cc1)C(Cc1c[nH]c2ccccc12)NCc1cc2ccccc2o1` (centres unmarked) [Example 244, 2-[(Benzofuran-2-ylmethyl)-amino]-N-(4-fluoro-benzyl)-3-(1H-indol-3-yl)-propionamide] here?
The IC50 was 12 nM.

For `O=C(NCCOc1ccccc1)C(Cc1c[nH]c2ccccc12)NCc1cc2ccccc2o1` (centres unmarked) [Example 305, 2-[(Benzofuran-2-ylmethyl)-amino]-3-(1H-indol-3-yl)-N-(2-phenoxy-ethyl)-propionamide], which IC50 is on record?
The IC50 was 400 nM.

Which IC50 does the source give for `O=C(NCCCn1ccnc1)C(Cc1c[nH]c2ccccc12)NCc1cc2ccccc2o1` (centres unmarked) [Example 201, 2-[(Benzofuran-2-ylmethyl)-amino]-N-(3-imidazol-1-yl-propyl)-3-(1H-indol-3-yl)-propionamide] here?
The IC50 was greater than 10000 nM.

For `O=C(NCc1cnc2ccccc2c1)C(Cc1c[nH]c2ccccc12)NCc1cc2ccccc2o1` (centres unmarked) [Example 205, 2-[(Benzofuran-2-ylmethyl)-amino]-3-(1H-indol-3-yl)-N-quinolin-3-ylmethyl-propionamide], which IC50 is on record?
Its IC50 is 2320 nM.

Which IC50 does the source give for `O=C(NCc1cccc(Cl)c1)C(Cc1c[nH]c2ccccc12)NCc1cc2ccccc2o1` (centres unmarked) [Example 263, 2-[(Benzofuran-2-ylmethyl)-amino]-N-(3-chloro-benzyl)-3-(1H-indol-3-yl)-propionamide] here?
Its IC50 is 9 nM.

How did the IC50 turn out when `O=C(NCCc1cccc(F)c1)C(Cc1c[nH]c2ccccc12)NCc1cc2ccccc2o1` (centres unmarked) [Example 293, 2-[(Benzofuran-2-ylmethyl)-amino]-N-[2-(3-fluoro-phenyl)-ethyl]-3-(1H-indol-3-yl)-propionamide] was run?
The IC50 was 55 nM.

With `O=C(NCC1CCCCC1)C(Cc1c[nH]c2ccccc12)NCc1cc2ccccc2o1` (centres unmarked) [Example 226, 2-[(Benzofuran-2-ylmethyl)-amino]-N-cyclohexylmethyl-3-(1H-indol-3-yl)-propionamide] as the compound, how does the IC50 read?
The IC50 was 54 nM.

With `COc1ccc(C(C)NC(=O)C(Cc2c[nH]c3ccccc23)NCc2cc3ccccc3o2)cc1` (centres unmarked) [Example 255, 2-[(Benzofuran-2-ylmethyl)-amino]-3-(1H-indol-3-yl)-N-[1-(4-methoxy-phenyl)-ethyl]-propionamide] as the compound, how does the IC50 read?
Its IC50 is 9 nM.

Which IC50 does the source give for `O=C(NCCSCc1ccccc1)C(Cc1c[nH]c2ccccc12)NCc1cc2ccccc2o1` (centres unmarked) [Example 296, 2-[(Benzofuran-2-ylmethyl)-amino]-N-(2-benzylsulfanyl-ethyl)-3-(1H-indol-3-yl)-propionamide] here?
Its IC50 is 1340 nM.

`O=C(NCc1ccccc1Br)C(Cc1c[nH]c2ccccc12)NCc1cc2ccccc2o1` (centres unmarked) [Example 302, 2-[(Benzofuran-2-ylmethyl)-amino]-N-(2-bromo-benzyl)-3-(1H-indol-3-yl)-propionamide] was tested. Which IC50 did it give?
Its IC50 is 174 nM.

With `CN1CCCC1CCNC(=O)C(Cc1c[nH]c2ccccc12)NCc1cc2ccccc2o1` (centres unmarked) [Example 198, 2-[(Benzofuran-2-ylmethyl)-amino]-3-(1H-indol-3-yl)-N-[2-(1-methyl-pyrrolidin-2-yl)-ethyl]-propionamide] as the compound, how does the IC50 read?
The IC50 was greater than 10000 nM.

Which IC50 does the source give for `O=C(NC1CCc2ccccc2C1)C(Cc1c[nH]c2ccccc12)NCc1cc2ccccc2o1` (centres unmarked) [Example 253, 2-[(Benzofuran-2-ylmethyl)-amino]-3-(1H-indol-3-yl)-N-(1,2,3,4-tetrahydro-naphthalen-2-yl)-propionamide] here?
The IC50 was 3330 nM.

For `O=C(NCCCc1ccccc1)C(Cc1c[nH]c2ccccc12)NCc1cc2ccccc2o1` (centres unmarked) [Example 278, 2-[(Benzofuran-2-ylmethyl)-amino]-3-(1H-indol-3-yl)-N-(3-phenyl-propyl)-propionamide], which IC50 is on record?
The IC50 was 2380 nM.

For `O=C(NCc1cccc(F)c1)C(Cc1c[nH]c2ccccc12)NCc1cc2ccccc2o1` (centres unmarked) [Example 248, 2-[(Benzofuran-2-ylmethyl)-amino]-N-(3-fluoro-benzyl)-3-(1H-indol-3-yl)-propionamide], which IC50 is on record?
The IC50 was 6 nM.

How did the IC50 turn out when `O=C(NCc1ccc(Cl)cc1)C(Cc1c[nH]c2ccccc12)NCc1cc2ccccc2o1` (centres unmarked) [Example 258, 2-[(Benzofuran-2-ylmethyl)-amino]-N-(4-chloro-benzyl)-3-(1H-indol-3-yl)-propionamide] was run?
The IC50 was 46 nM.

Same assay, conditions: Table 4; [125I]Bolton-Hunter substance P displacement, human IM9 cells; read-out: IC50 (nM) hNK1

For `CC(NC(=O)C(C)(Cc1c[nH]c2ccccc12)NCc1nc2ccccc2[nH]1)c1ccccc1` (centres unmarked) [compound 316, 2-[(1H-Benzoimidazol-2-ylmethyl)-amino]-3-(1H-indol-3-yl)-2-methyl-N-(1-phenyl-ethyl)-propionamide], which IC50 is on record?
Its IC50 is greater than 10000 nM.

With `CC(NC(=O)C(C)(Cc1c[nH]c2ccccc12)NCc1ccc2c(c1)OCO2)c1ccccc1` (centres unmarked) [compound 349, 2-[(Benzo[1,3]dioxol-5-ylmethyl)-amino]-3-(1H-indol-3-yl)-2-methyl-N-(1-phenyl-ethyl)-propionamide] as the compound, how does the IC50 read?
The IC50 was 356 nM.

Which IC50 does the source give for “3-(1H-Indol-3-yl)-2-methyl-N-(1-phenyl-ethyl)-2-[(pyridin-4-ylmethyl)-amino]-propionamide [compound 313]” here?
The IC50 was 50 nM.

Which IC50 does the source give for “2-(4-Benzyloxy-benzylamino)-3-(1H-indol-3-yl)-2-methyl-N-(1-phenyl-ethyl)-propionamide [compound 341]” here?
Its IC50 is greater than 10000 nM.

Same assay, conditions: Table 5; [125I]Bolton-Hunter substance P displacement, human IM9 cells; read-out: IC50 (nM) hNK1

With `CC(NC(=O)C(Cc1c[nH]c2ccccc12)NCC=Cc1ccc2c(c1)OCO2)c1ccccc1` (centres unmarked) [compound 377] as the compound, how does the IC50 read?
The IC50 was 593 nM.

With `CC(NC(=O)C(Cc1c[nH]c2ccccc12)NCC(Cc1ccccc1)c1ccccc1)c1ccccc1` (centres unmarked) [compound 370] as the compound, how does the IC50 read?
The IC50 was 534 nM.

For `CC(NC(=O)C(Cc1c[nH]c2ccccc12)NCc1ccc(OCCCC(C)(C)C(=O)O)cc1)c1ccccc1` (centres unmarked) [compound 364], which IC50 is on record?
Its IC50 is 1250 nM.

How did the IC50 turn out when `CC(NC(=O)C(Cc1c[nH]c2ccccc12)NCc1cccc(F)c1)c1ccccc1` (centres unmarked) [compound 401] was run?
Its IC50 is 39 nM.

`COc1ccc(CNC(Cc2c[nH]c3ccccc23)C(=O)NC(C)c2ccccc2)cc1OC` (centres unmarked) [compound 397] was tested. Which IC50 did it give?
The IC50 was greater than 10000 nM.

Same assay, conditions: human NK1 receptor, IM9 cells, [125I]Bolton-Hunter substance P; read-out: IC50 (nM) hNK1

Which IC50 does the source give for `CC(Cc1c[nH]c2ccccc12)(NCc1cc2ccccc2o1)C(=O)NCCc1ccc(O)cc1` (centres unmarked) [compound 143, 2-[(Benzofuran-2-ylmethyl)-amino]-N-[2-(4-hydroxy-phenyl)-ethyl]-3-(1H-indol-3-yl)-2-methyl-propionamide] here?
Its IC50 is greater than 10000 nM.

With `CC(Cc1c[nH]c2ccccc12)(NCc1cc2ccccc2o1)C(=O)NCCCN1CCOCC1` (centres unmarked) [compound 185, 2-[(Benzofuran-2-ylmethyl)-amino]-3-(1H-indol-3-yl)-2-methyl-N-(3-morpholin-4-yl-propyl)-propionamide] as the compound, how does the IC50 read?
The IC50 was greater than 10000 nM.

`CC(Cc1c[nH]c2ccccc12)(NCc1cc2ccccc2o1)C(=O)NCCN1CCOCC1` (centres unmarked) [compound 128, 2-[(Benzofuran-2-ylmethyl)-amino]-3-(1H-indol-3-yl)-2-methyl-N-(2-morpholin-4-yl-ethyl)-propionamide] was tested. Which IC50 did it give?
Its IC50 is greater than 10000 nM.

`CC(Cc1c[nH]c2ccccc12)(NCc1cc2ccccc2o1)C(=O)NCCc1cccs1` (centres unmarked) [compound 172, 2-[(Benzofuran-2-ylmethyl)-amino]-3-(1H-indol-3-yl)-2-methyl-N-(2-thiophen-2-yl-ethyl)-propionamide] was tested. Which IC50 did it give?
Its IC50 is 153 nM.

`CC(NC(=O)C(C)(Cc1c[nH]c2ccccc12)NCc1cc2ccccc2o1)c1ccc(Cl)s1` (centres unmarked) [compound 118, 2-[(Benzofuran-2-ylmethyl)-amino]-N-[1-(5-chloro-thiophen-2-yl)-ethyl]-3-(1H-indol-3-yl)-2-methyl-propionamide] was tested. Which IC50 did it give?
Its IC50 is 45 nM.

With `CC(NC(=O)C(C)(Cc1c[nH]c2ccccc12)NCc1cc2ccccc2o1)c1ccc(N(C)C)cc1` (centres unmarked) [compound 39, 2-[(Benzofuran-2-ylmethyl)-amino]-N-[1-(4-dimethylamino-phenyl)-ethyl]-3-(1H-indol-3-yl)-2-methyl-propionamide] as the compound, how does the IC50 read?
The IC50 was 863 nM.

`CC(Cc1c[nH]c2ccccc12)(NCc1cc2ccccc2o1)C(=O)NC1NC(=O)c2ccccc21` (centres unmarked) [compound 85] was tested. Which IC50 did it give?
The IC50 was 2440 nM.

`CC(Cc1c[nH]c2ccccc12)(NCc1cc2ccccc2o1)C(=O)NCc1cc(C(F)(F)F)cc(C(F)(F)F)c1` (centres unmarked) [compound 51, 2-[(Benzofuran-2-ylmethyl)-amino]-N-(3,5-bis-trifluoromethyl-benzyl)-3-(1H-indol-3-yl)-2-methyl-propionamide] was tested. Which IC50 did it give?
Its IC50 is 179 nM.

`CC(Cc1c[nH]c2ccccc12)(NCc1cc2ccccc2o1)C(=O)NC1(c2cccs2)CCCCC1` (centres unmarked) [compound 160, 2-[(Benzofuran-2-ylmethyl)-amino]-3-(1H-indol-3-yl)-2-methyl-N-(1-thiophen-2-yl-cyclohexyl)-propionamide] was tested. Which IC50 did it give?
Its IC50 is greater than 10000 nM.

With `CN(C)CCNC(=O)C(C)(Cc1c[nH]c2ccccc12)NCc1cc2ccccc2o1` (centres unmarked) [compound 83, 2-[(Benzofuran-2-ylmethyl)-amino]-N-(2-dimethylamino-ethyl)-3-(1H-indol-3-yl)-2-methyl-propionamide] as the compound, how does the IC50 read?
Its IC50 is 3520 nM.

`CC(Cc1c[nH]c2ccccc12)(NCc1cc2ccccc2o1)C(=O)NCC1CCCO1` (centres unmarked) [compound 138, 2-[(Benzofuran-2-ylmethyl)-amino]-3-(1H-indol-3-yl)-2-methyl-N-(tetrahydro-furan-2-ylmethyl)-propionamide] was tested. Which IC50 did it give?
The IC50 was 4870 nM.

With `CC(Cc1c[nH]c2ccccc12)(NCc1cc2ccccc2o1)C(=O)NCc1ccc(F)c(F)c1` (centres unmarked) [compound 167, 2-[(Benzofuran-2-ylmethyl)-amino]-N-(3,4-difluoro-benzyl)-3-(1H-indol-3-yl)-2-methyl-propionamide] as the compound, how does the IC50 read?
Its IC50 is 29 nM.

`COC(=O)C(Cc1c[nH]cn1)NC(=O)C(C)(Cc1c[nH]c2ccccc12)NCc1cc2ccccc2o1` (centres unmarked) [compound 176, 2-[2-[(Benzofuran-2-ylmethyl)-amino]-3-(1H-indol-3-yl)-2-methyl-propionylamino]-3-(1H-imidazol-4-yl)-propionic acid methyl ester] was tested. Which IC50 did it give?
The IC50 was 1760 nM.
